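These data come from cells grown in 96-well plates and exposed to compound for 48 hours at five concentrations. Abbreviation: GI50, concentration required for 50% inhibition of growth.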 The source made the active and inactive calls. No stated cut-off is given here; in the data, active = GI50 up to about 1.1 µM and inactive = higher.
Experiments:
Assay in all cases: DTP human tumour cell line panel, 48 h
UO-31 = tested on: UO-31
HOP-62 = tested on: HOP-62
EKVX = tested on: EKVX
RPMI-8226 = tested on: RPMI-8226
M14 = tested on: M14
SK-MEL-28 = tested on: SK-MEL-28
CCRF-CEM = tested on: CCRF-CEM
CAKI-1 = tested on: CAKI-1
OVCAR-5 = tested on: OVCAR-5
UACC-257 = tested on: UACC-257
HL-60 = tested on: HL-60
IGROV-1 = tested on: IGROV-1
HCT-15 = tested on: HCT-15
U-251 = tested on: U-251
LOX IMVI = tested on: LOX IMVI

| Compound | GI50 (UO-31) | GI50 (HOP-62) | GI50 (EKVX) | GI50 (RPMI-8226) | GI50 (M14) | GI50 (SK-MEL-28) | GI50 (CCRF-CEM) | GI50 (CAKI-1) | GI50 (OVCAR-5) | GI50 (UACC-257) | GI50 (HL-60) | GI50 (IGROV-1) | GI50 (HCT-15) [µM] | GI50 (U-251) | GI50 (LOX IMVI) |
| --- | --- | --- | --- | --- | --- | --- | --- | --- | --- | --- | --- | --- | --- | --- | --- |
| O=[N+]([O-])c1ccc2nc(/C(=N/Nc3ccccc3)C(O)c3ccc(C(O)/C(=N\Nc4ccccc4)c4nc5ccc([N+](=O)[O-])cc5nc4O)cc3)cnc2c1 (stereo not drawn) | 23 µM (inactive) | 28.5 µM (inactive) | > 100 µM (inactive) | 19.4 µM (inactive) | 40.3 µM (inactive) | > 100 µM (inactive) | 39.6 µM (inactive) | 60.4 µM (inactive) | 31.4 µM (inactive) | > 100 µM (inactive) | 19.3 µM (inactive) | > 100 µM (inactive) | – | – | – |
| CC1(C)C(=O)C(=Cc2ccco2)C1=O | > 100 µM (inactive) | – | > 100 µM (inactive) | > 100 µM (inactive) | > 100 µM (inactive) | > 100 µM (inactive) | > 100 µM (inactive) | > 100 µM (inactive) | > 100 µM (inactive) | > 100 µM (inactive) | > 100 µM (inactive) | > 100 µM (inactive) | > 100 | > 100 µM (inactive) | > 100 µM (inactive) |
| O=C(c1ccccc1)C1(Br)S(=O)(=O)OCCOS1(=O)=O | > 100 µM (inactive) | > 100 µM (inactive) | > 100 µM (inactive) | > 100 µM (inactive) | > 100 µM (inactive) | > 100 µM (inactive) | > 100 µM (inactive) | – | > 100 µM (inactive) | > 100 µM (inactive) | > 100 µM (inactive) | > 100 µM (inactive) | > 100 | > 100 µM (inactive) | > 100 µM (inactive) |
| CCO/C([O-])=C(\C(=O)c1ccc([N+](=O)[O-])cc1)[n+]1c(C)n(C)c2ccccc21 | > 100 µM (inactive) | > 100 µM (inactive) | > 100 µM (inactive) | > 100 µM (inactive) | > 100 µM (inactive) | > 100 µM (inactive) | > 100 µM (inactive) | > 100 µM (inactive) | > 100 µM (inactive) | > 100 µM (inactive) | > 100 µM (inactive) | > 100 µM (inactive) | – | > 100 µM (inactive) | > 100 µM (inactive) |
| CN(C)C(=S)/N=c1\ss/c(=N\c2ccccc2)n1-c1ccccc1 | 32.9 µM (inactive) | 27.2 µM (inactive) | 37.3 µM (inactive) | – | 14.7 µM (inactive) | 29 µM (inactive) | 0.435 µM (active) | 34.3 µM (inactive) | > 100 µM (inactive) | 24.2 µM (inactive) | 24.6 µM (inactive) | 25.1 µM (inactive) | 23.2 | 24.7 µM (inactive) | 17.1 µM (inactive) |
| O=C(NC1C2CC3CC(C2)CC1C3)/C(Cl)=C1/Sc2ccccc2NC1=O (stereo not drawn) | 58.9 µM (inactive) | > 100 µM (inactive) | > 100 µM (inactive) | – | > 100 µM (inactive) | > 100 µM (inactive) | 29.5 µM (inactive) | > 100 µM (inactive) | > 100 µM (inactive) | > 100 µM (inactive) | 62.2 µM (inactive) | > 100 µM (inactive) | > 78.9 | > 100 µM (inactive) | 99.3 µM (inactive) |
| OC1OCC(COc2cc(Cl)c(Cl)cc2Cl)OC1O (stereo not drawn) | 41.9 µM (inactive) | 76.7 µM (inactive) | 34.3 µM (inactive) | 26.7 µM (inactive) | 30.1 µM (inactive) | 65.3 µM (inactive) | 32 µM (inactive) | 33.1 µM (inactive) | > 100 µM (inactive) | 35.9 µM (inactive) | 26.2 µM (inactive) | 80.9 µM (inactive) | 19.8 | 36.6 µM (inactive) | – |
| COc1ccc(N2C(=O)C3CC(c4ccc(Br)cc4)c4c([nH]c5ccccc45)C3C2=O)cc1 (stereo not drawn) | 11 µM (inactive) | 3.91 µM (inactive) | 16.9 µM (inactive) | 26.7 µM (inactive) | 19.5 µM (inactive) | 11.5 µM (inactive) | 8.59 µM (inactive) | 15.1 µM (inactive) | 22.6 µM (inactive) | 17.3 µM (inactive) | 12.8 µM (inactive) | 10.6 µM (inactive) | 90.6 | – | 4.69 µM (inactive) |
| CC1CC[C@]2(C(=O)O)CCC3(C)C(=CCC4[C@@]5(C)CC[C@H](OS(=O)(=O)c6ccccc6)C(C)(C)C5CC[C@]43C)[C@@H]2[C@H]1C (stereo partly drawn) | 88.9 µM (inactive) | > 100 µM (inactive) | 55.1 µM (inactive) | 35 µM (inactive) | > 100 µM (inactive) | > 100 µM (inactive) | 78 µM (inactive) | > 100 µM (inactive) | > 100 µM (inactive) | > 100 µM (inactive) | – | > 100 µM (inactive) | – | 83.2 µM (inactive) | 83 µM (inactive) |
| COc1ccc(/C=C\c2cc(OC)c(OC)c(OC)c2)cc1 | < 0.01 µM (active) | 0.1 µM (active) | 0.00264 µM (active) | 0.00049 µM (active) | 0.00024 µM (active) | < 0.01 µM (active) | 0.000269 µM (active) | < 0.01 µM (active) | 43.5 µM (inactive) | < 0.01 µM (active) | 0.000244 µM (active) | 0.0387 µM (active) | 0.000448 | 0.000284 µM (active) | 0.000632 µM (active) |

— ChEMBL document CHEMBL1201862, “PubChem BioAssay data set” (2004)
